In patent US20230391739A1, “ARYL DERIVATIVES FOR TREATING TRPM3 MEDIATED DISORDERS” (Katholieke Universiteit Leuven, priority 2020, published 2023):

Each compound was assayed against T1, mouse TRPM3α2 (mTRPM3) ion channel (Mus musculus, UniProt J9SQF3) (assay: TRPM3 ion channel driven Ca2+ uptake, Fluo-4 AM assay, PS-stimulated (mTRPM3)). Conditions: TRPM3 overexpressing flip-in HEK293 cells stimulated with Pregnenolone sulfate (PS) 50 μM, activity ranges A, B, C.
T1 construct: expressed in transfected cells; host or cells: flip-in HEK293
T1 sequence (J9SQF3 1-1709 isoform J9SQF3-12): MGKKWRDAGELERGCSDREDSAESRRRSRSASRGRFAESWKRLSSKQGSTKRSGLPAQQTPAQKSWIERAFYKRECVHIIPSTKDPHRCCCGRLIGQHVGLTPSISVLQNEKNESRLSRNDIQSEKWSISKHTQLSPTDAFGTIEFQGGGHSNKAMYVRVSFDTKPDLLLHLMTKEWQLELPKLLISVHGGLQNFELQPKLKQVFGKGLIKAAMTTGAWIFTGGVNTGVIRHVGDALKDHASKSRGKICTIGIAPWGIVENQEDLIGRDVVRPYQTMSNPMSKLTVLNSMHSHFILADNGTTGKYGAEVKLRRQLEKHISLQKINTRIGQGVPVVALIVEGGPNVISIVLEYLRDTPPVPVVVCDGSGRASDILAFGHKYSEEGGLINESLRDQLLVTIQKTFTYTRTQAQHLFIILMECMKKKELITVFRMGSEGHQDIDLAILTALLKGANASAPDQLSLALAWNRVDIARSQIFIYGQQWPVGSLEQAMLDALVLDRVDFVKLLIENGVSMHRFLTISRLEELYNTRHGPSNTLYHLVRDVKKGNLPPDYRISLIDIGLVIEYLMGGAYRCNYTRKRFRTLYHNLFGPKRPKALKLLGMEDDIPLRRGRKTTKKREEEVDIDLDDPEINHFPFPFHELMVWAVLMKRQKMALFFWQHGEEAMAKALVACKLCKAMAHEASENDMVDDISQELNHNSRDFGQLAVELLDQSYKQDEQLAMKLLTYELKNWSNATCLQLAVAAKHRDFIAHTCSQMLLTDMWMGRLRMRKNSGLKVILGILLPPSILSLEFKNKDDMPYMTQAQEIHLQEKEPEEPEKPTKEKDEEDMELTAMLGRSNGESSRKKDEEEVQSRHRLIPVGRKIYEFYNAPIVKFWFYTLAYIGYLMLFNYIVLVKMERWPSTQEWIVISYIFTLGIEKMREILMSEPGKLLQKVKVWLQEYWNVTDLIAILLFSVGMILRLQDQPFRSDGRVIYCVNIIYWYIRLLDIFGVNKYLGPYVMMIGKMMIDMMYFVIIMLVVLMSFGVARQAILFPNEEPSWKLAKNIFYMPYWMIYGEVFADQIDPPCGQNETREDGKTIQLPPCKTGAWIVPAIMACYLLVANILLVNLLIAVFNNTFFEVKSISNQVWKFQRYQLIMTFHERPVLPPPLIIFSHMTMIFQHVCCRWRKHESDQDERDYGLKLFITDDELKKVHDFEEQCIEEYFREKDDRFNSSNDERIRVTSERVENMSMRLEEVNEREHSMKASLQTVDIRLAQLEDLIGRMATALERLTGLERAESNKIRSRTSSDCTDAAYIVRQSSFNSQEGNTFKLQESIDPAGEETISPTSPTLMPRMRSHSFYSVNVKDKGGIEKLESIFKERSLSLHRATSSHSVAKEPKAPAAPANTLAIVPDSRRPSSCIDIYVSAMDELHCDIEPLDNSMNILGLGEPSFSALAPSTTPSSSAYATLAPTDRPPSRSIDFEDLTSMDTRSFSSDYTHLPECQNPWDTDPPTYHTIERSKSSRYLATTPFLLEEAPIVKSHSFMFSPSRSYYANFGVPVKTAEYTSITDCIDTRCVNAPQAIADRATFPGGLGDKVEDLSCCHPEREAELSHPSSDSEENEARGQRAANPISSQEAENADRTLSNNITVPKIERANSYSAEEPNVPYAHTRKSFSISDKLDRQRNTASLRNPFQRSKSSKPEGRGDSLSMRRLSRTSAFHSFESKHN
Assay type: cell-based
In short: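 Flp-In HEK293 cells overexpressing mTRPM3α2 were added, in Ca²⁺-free Krebs, to wells already holding compound and 50 μM pregnenolone sulfate in Ca²⁺-containing Krebs. Fluo-4 AM fluorescence (ex 485/em 535 nm) was read immediately. Percent inhibition was computed from RFU relative to PS/vehicle wells and a positive-control inhibitor.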

Row | IC50 | SMILES
1 | < 1000 nM | Cc1oc2ccc(OCc3ccccc3)cc2c1C(=O)N[C@@H]1C[C@H]2CNC[C@H]2C1 [Cpd 140, 5-(benzyloxy)-2-methyl-N-(trans-octahydrocyclopenta[c]pyrrol-5-yl)benzofuran-3-carboxamide]
2 | < 1000 nM | CNC(=O)c1c(C)oc2ccc(OCc3c(F)cccc3Cl)cc12 [Cpd 045, 5-((2-chloro-6-fluorobenzyl)oxy)-N,2-dimethylbenzofuran-3-carboxamide]
3 | 1000 to 20000 nM | Cc1oc2ccc(OCc3ccccc3)cc2c1C(=O)NCc1nnc2ncccn12 [Cpd 196, N-([1,2,4]triazolo[4,3-a]pyrimidin-3-ylmethyl)-5-(benzyloxy)-2-methylbenzofuran-3-carboxamide]
4 | > 20000 nM | Cc1oc2ccc(OCc3ccccc3S(C)(=O)=O)cc2c1C(=O)NC1CCN(C)CC1 [Cpd 242, 2-methyl-N-(1-methylpiperidin-4-yl)-5-((2-(methylsulfonyl)benzyl)oxy)benzofuran-3-carboxamide]
5 | 1000 to 20000 nM | Cc1oc2ccc(OCc3ccccc3)cc2c1C(=O)NCCN1CCN(C)CC1 [Cpd 189, 5-(benzyloxy)-2-methyl-N-(2-(4-methylpiperazin-1-yl)ethyl)benzofuran-3-carboxamide]
6 | < 1000 nM | Cc1oc2ccc(OCc3ccccc3)cc2c1C(=O)N[C@H]1CC[C@H](O)CC1 [Cpd 124, 5-(benzyloxy)-N-(trans-4-hydroxycyclohexyl)-2-methylbenzofuran-3-carboxamide]
7 | 1000 to 20000 nM | Cc1oc2ccc(OCc3c(F)cccc3Cl)cc2c1C(=O)O [Cpd 021, 5-((2-chloro-6-fluorobenzyl)oxy)-2-methylbenzofuran-3-carboxylic acid]
8 | < 1000 nM | Cc1oc2ccc(OCc3ccccc3)cc2c1C(=O)N[C@H]1CCCNC1=O [Cpd 109, (S)-5-(benzyloxy)-2-methyl-N-(2-oxopiperidin-3-yl)benzofuran-3-carboxamide]
9 | < 1000 nM | Cc1oc2ccc(OCc3ccccc3)cc2c1C(=O)NC1CCOC1 (stereo not drawn) [Cpd 051, 5-(benzyloxy)-2-methyl-N-(tetrahydrofuran-3-yl)benzofuran-3-carboxamide]
10 | > 20000 nM | Cc1cc2oc(C)c(C(=O)NC3CNCC3(F)F)c2cc1OCc1ccccc1 (single isomer, unassigned) [Cpd 303-En 2, 5-(benzyloxy)-N-(4,4-difluoropyrrolidin-3-yl)-2,6-dimethylbenzofuran-3-carboxamide]
11 | < 1000 nM | COc1ccccc1COc1ccc2oc(C)c(C(=O)NC3CCNC3=O)c2c1 (stereo not drawn) [Cpd 164, 5-((2-methoxybenzyl)oxy)-2-methyl-N-(2-oxopyrrolidin-3-yl)benzofuran-3-carboxamide]
12 | 1000 to 20000 nM | Cc1oc2ccc(OCc3ccccc3)cc2c1C(=O)NC1CCC(=O)NC1 (stereo not drawn) [Cpd 111, 5-(benzyloxy)-2-methyl-N-(6-oxopiperidin-3-yl)benzofuran-3-carboxamide]
13 | < 1000 nM | CCC(Oc1ccc2oc(C)c(C(=O)N[C@H]3CCNC3)c2c1)c1ccccc1C(F)(F)F (mixture of isomers) [Cpd 231, rac-2-methyl-N—((R)-pyrrolidin-3-yl)-5-(1-(2-(trifluoromethyl)phenyl)propoxy)benzofuran-3-carboxamide]
14 | 1000 to 20000 nM | Cc1oc2ccc(OCc3ccccc3)cc2c1C(=O)NCC1CCNCC1 [Cpd 121, 5-(benzyloxy)-2-methyl-N-(piperidin-4-ylmethyl)benzofuran-3-carboxamide]
15 | 1000 to 20000 nM | Cc1oc2ccc(OCc3cccc(F)c3F)cc2c1C(=O)N[C@H]1CCN(C(=O)OC(C)(C)C)C1 [Cpd 256, tert-butyl (S)-3-(5-((2,3-difluorobenzyl)oxy)-2-methylbenzofuran-3-carboxamido)pyrrolidine-1-carboxylate]
16 | 1000 to 20000 nM | Cc1oc2ccc(OCc3ccccc3)c(C#N)c2c1C(=O)NC1CNCC1(F)F (single isomer, unassigned) [Cpd 297-En 2, 5-(benzyloxy)-4-cyano-N-(4,4-difluoropyrrolidin-3-yl)-2-methylbenzofuran-3-carboxamide]
17 | < 1000 nM | Cc1oc2ccc(OCc3ccccc3)cc2c1C(=O)Nc1cccnc1 [Cpd 059, 5-(benzyloxy)-2-methyl-N-(pyridin-3-yl)benzofuran-3-carboxamide]
18 | < 1000 nM | Cc1oc2ccc(OCc3ccccc3F)cc2c1C(=O)NC1CCNCC1(F)F (stereo not drawn) [Cpd 201, N-(3,3-difluoropiperidin-4-yl)-5-((2-fluorobenzyl)oxy)-2-methylbenzofuran-3-carboxamide]
19 | > 20000 nM | Cc1oc2ccc(OCc3ccccc3)cc2c1C(=O)NC1CCCN(C(=O)OC(C)(C)C)C1 (stereo not drawn) [Cpd 247, tert-butyl 3-(5-(benzyloxy)-2-methylbenzofuran-3-carboxamido)piperidine-1-carboxylate]
20 | 1000 to 20000 nM | Cc1oc2ccc(OCc3ccccc3)cc2c1C(=O)NCCN1CCOCC1 [Cpd 165, 5-(benzyloxy)-2-methyl-N-(2-morpholinoethyl)benzofuran-3-carboxamide]
21 | < 1000 nM | Cc1oc2ccc(OCc3ccccc3)cc2c1C(=O)NC1CCN(C(C)C)CC1 [Cpd 185, 5-(benzyloxy)-N-(1-isopropylpiperidin-4-yl)-2-methylbenzofuran-3-carboxamide]

Row | IC50 | SMILES
22 | < 1000 nM | Cc1oc2ccc(OCc3ccccc3F)cc2c1C(=O)NC1(CO)CCNC1=O (single isomer, unassigned) [Cpd 334-En 1]
23 | < 1000 nM | Cc1oc2ccc(OCc3ccccc3)cc2c1C(=O)Nc1ccccc1 [Cpd 058, 5-(benzyloxy)-2-methyl-N-phenylbenzofuran-3-carboxamide]
24 | 1000 to 20000 nM | Cc1oc2ccc(OCc3ccccc3)cc2c1C(=O)N1CCN(c2ccccn2)CC1 [Cpd 214, (5-(benzyloxy)-2-methylbenzofuran-3-yl)(4-(pyridin-2-yl)piperazin-1-yl)methanone]
25 | < 1000 nM | Cc1oc2ccc(OCc3ccccc3S(C)(=O)=O)cc2c1C(=O)NC1CCNCC1(F)F (single isomer, unassigned) [Cpd 333-En 2, N-(3,3-difluoropiperidin-4-yl)-2-methyl-5-((2-(methylsulfonyl)benzyl)oxy)benzofuran-3-carboxamide]
26 | < 1000 nM | Cc1oc2ccc(OCc3ccccc3F)cc2c1C(=O)NC1CCN(CCO)C1=O (single isomer, unassigned) [Cpd 311-En 2, 5-((2-Fluorobenzyl)oxy)-N-(1-(2-hydroxyethyl)-2-oxopyrrolidin-3-yl)-2-methylbenzofuran-3-carboxamide]
27 | < 1000 nM | Cc1oc2ccc(OCc3cccc(F)c3F)cc2c1C(=O)NC1CCNCC1(F)F (stereo not drawn) [Cpd 227, 5-((2,3-difluorobenzyl)oxy)-N-(3,3-difluoropiperidin-4-yl)-2-methylbenzofuran-3-carboxamide]
28 | < 1000 nM | Cc1oc2ccc(OCc3cccc(F)c3F)cc2c1C(=O)NC1CCNC1=O (stereo not drawn) [Cpd 171, 5-((2,3-difluorobenzyl)oxy)-2-methyl-N-(2-oxopyrrolidin-3-yl)benzofuran-3-carboxamide]
29 | < 1000 nM | Cc1oc2ccc(OCc3ccccc3)cc2c1C(=O)NS(=O)(=O)C1CC1 [Cpd 133, 5-(benzyloxy)-N-(cyclopropylsulfonyl)-2-methylbenzofuran-3-carboxamide]
30 | > 20000 nM | CCN1CCCN(C(=O)c2c(C)oc3ccc(OCc4ccccc4)cc23)CC1 [Cpd 149, (5-(benzyloxy)-2-methylbenzofuran-3-yl)(4-ethyl-1,4-diazepan-1-yl)methanone]
31 | < 1000 nM | Cc1oc2ccc(OCc3ccccc3)cc2c1C(=O)N[C@@H]1CCNC1 [Cpd 048, (R)-5-(benzyloxy)-2-methyl-N-(pyrrolidin-3-yl)benzofuran-3-carboxamide]
32 | < 1000 nM | Cc1oc2ccc(OCc3ccccc3C(F)(F)F)cc2c1C(=O)N[C@H]1CCNC1 [Cpd 203, (S)-2-methyl-N-(pyrrolidin-3-yl)-5-((2-(trifluoromethyl)benzyl)oxy)benzofuran-3-carboxamide]
33 | < 1000 nM | Cc1oc2ccc(OCc3ccccc3F)cc2c1C(=O)NC1(CO)CCOCC1 [Cpd 197, 5-((2-fluorobenzyl)oxy)-N-(4-(hydroxymethyl)tetrahydro-2H-pyran-4-yl)-2-methylbenzofuran-3-carboxamide]
34 | < 1000 nM | Cc1oc2ccc(OCc3ccccc3F)cc2c1C(=O)NC1CCNC1=O (stereo not drawn) [Cpd 129, 5-((2-fluorobenzyl)oxy)-2-methyl-N-(2-oxopyrrolidin-3-yl)benzofuran-3-carboxamide]
35 | < 1000 nM | Cc1cccc(COc2ccc3oc(C)c(C(=O)O)c3c2)c1 [Cpd 005, 2-methyl-5-((3-methylbenzyl)oxy)benzofuran-3-carboxylic acid]
36 | > 20000 nM | Cc1oc2ccc(OCc3cccc(F)c3)cc2c1C(N)=O [Cpd 037, 5-((3-fluorobenzyl)oxy)-2-methylbenzofuran-3-carboxamide]
37 | < 1000 nM | Cc1oc2ccc(OCc3ccccc3)cc2c1C(=O)NC1CCNCC1F (stereo not drawn) [Cpd 131, 5-(benzyloxy)-N-(3-fluoropiperidin-4-yl)-2-methylbenzofuran-3-carboxamide]
38 | < 1000 nM | Cc1oc2ccc(OCc3ccccc3)cc2c1C(=O)N[C@H]1CCNC1 [Cpd 049, (S)-5-(benzyloxy)-2-methyl-N-(pyrrolidin-3-yl)benzofuran-3-carboxamide]
39 | < 1000 nM | Cc1oc2ccc(OCc3ccccc3C(F)(F)F)cc2c1C(=O)O [Cpd 024, 2-methyl-5-((2-(trifluoromethyl)benzyl)oxy)benzofuran-3-carboxylic acid]
40 | 1000 to 20000 nM | Cc1oc2ccc(OCc3ccccc3)cc2c1C(=O)N[C@H]1CC[C@H](C(C)(C)O)CC1 [Cpd 210, 5-(benzyloxy)-N-(trans-4-(2-hydroxypropan-2-yl)cyclohexyl)-2-methylbenzofuran-3-carboxamide]
41 | 1000 to 20000 nM | Cc1oc2ccc(OCc3ccccc3)cc2c1C(=O)NCCCN(C)C [Cpd 091, 5-(benzyloxy)-N-(3-(dimethylamino)propyl)-2-methylbenzofuran-3-carboxamide]

Row | SMILES | IC50
42 | Cc1oc2ccc(OCc3ccccc3)cc2c1C(=O)N[C@H]1C[C@H]2CC[C@@H](C1)N2 [Cpd 143, 5-(benzyloxy)-N-((1R,3r,5S)-8-azabicyclo[3.2.1]octan-3-yl)-2-methylbenzofuran-3-carboxamide] | < 1000 nM
